Data published in the supplement of paper PMC10307832.

Legend:
Test in all cases: relative viability (nuclei count vs DMSO), 5 days (fraction); higher = more cells survive
A-427 = tested on: A-427
How it was run: (§1)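 The day after seeding in 1536-well plates, lung cancer cell lines were treated by pin tool with a single drug, or with a fixed anchor-drug dose together with five library-drug doses (not always all listed) in √10 steps. After 5 days, a combined fix-and-stain solution (final 0.05% Triton X-100, 1% formaldehyde, 1 ug/ml Hoechst) was added. Nuclei counted on 4× images gave relative viability as treated counts over vehicle counts, reported as the median of duplicate plates.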

ABC-1 = tested on: ABC-1
How it was run: as §1

COR-L23 = tested on: COR-L23
How it was run: as §1

EMC-BAC-2 = tested on: EMC-BAC-2
How it was run: as §1

HARA = tested on: HARA
How it was run: as §1

HOP-62 = tested on: HOP-62
How it was run: as §1

LK-2 = tested on: LK-2
How it was run: as §1

LU99A = tested on: LU99A
How it was run: as §1

LXF-289 = tested on: LXF-289
How it was run: as §1

NCI-H1792 = tested on: NCI-H1792
How it was run: as §1

NCI-H1944 = tested on: NCI-H1944
How it was run: as §1

NCI-H1993 = tested on: NCI-H1993
How it was run: as §1

NCI-H2009 = tested on: NCI-H2009
How it was run: as §1

NCI-H2170 = tested on: NCI-H2170
How it was run: as §1

NCI-H2228 = tested on: NCI-H2228
How it was run: as §1

NCI-H3122 = tested on: NCI-H3122
How it was run: as §1

NCI-H596 = tested on: NCI-H596
How it was run: as §1

NCI-H727 = tested on: NCI-H727
How it was run: as §1

PC-3 [JPC-3] = tested on: PC-3 [JPC-3]
How it was run: as §1

SK-LU-1 = tested on: SK-LU-1
How it was run: as §1

SK-MES-1 = tested on: SK-MES-1
How it was run: as §1

SW 1573 = tested on: SW 1573
How it was run: as §1

Structure (SMILES): Clc1ccc(Nc2nnc(Cc3ccncc3)c3ccccc23)cc1 [Vatalanib] + C[C@@H](Oc1cc(-c2cnn(C3CCNCC3)c2)cnc1N)c1c(Cl)ccc(F)c1Cl [Crizotinib] (partner 1 µM)
- relative viability (A-427; first compound 0.04 µM): 1.03
- relative viability (A-427; first compound 0.1265 µM): 0.891
- relative viability (A-427; first compound 0.4 µM): 0.994
- relative viability (A-427; first compound 1.265 µM): 0.879
- relative viability (A-427; first compound 4 µM): 0.948
- relative viability (ABC-1; first compound 0.04 µM): 1.01
- relative viability (ABC-1; first compound 0.1265 µM): 1
- relative viability (ABC-1; first compound 0.4 µM): 1.37
- relative viability (ABC-1; first compound 1.265 µM): 0.89
- relative viability (ABC-1; first compound 4 µM): 1.13
- relative viability (COR-L23; first compound 0.04 µM): 0.7
- relative viability (COR-L23; first compound 0.1265 µM): 0.558
- relative viability (COR-L23; first compound 0.4 µM): 0.668
- relative viability (COR-L23; first compound 1.265 µM): 0.683
- relative viability (COR-L23; first compound 4 µM): 0.632
- relative viability (EMC-BAC-2; first compound 0.04 µM): 0.703
- relative viability (EMC-BAC-2; first compound 0.1265 µM): 0.76
- relative viability (EMC-BAC-2; first compound 0.4 µM): 0.75
- relative viability (EMC-BAC-2; first compound 1.265 µM): 0.752
- relative viability (EMC-BAC-2; first compound 4 µM): 0.742
- relative viability (HARA; first compound 0.04 µM): 0.99
- relative viability (HARA; first compound 0.1265 µM): 0.956
- relative viability (HARA; first compound 0.4 µM): 1.01
- relative viability (HARA; first compound 1.265 µM): 1.07
- relative viability (HARA; first compound 4 µM): 0.998
- relative viability (HOP-62; first compound 0.04 µM): 0.921
- relative viability (HOP-62; first compound 0.4 µM): 0.948
- relative viability (HOP-62; first compound 1.265 µM): 0.911
- relative viability (HOP-62; first compound 4 µM): 0.904
- relative viability (LK-2; first compound 0.04 µM): 0.243
- relative viability (LK-2; first compound 0.1265 µM): 0.232
- relative viability (LK-2; first compound 1.265 µM): 0.252
- relative viability (LK-2; first compound 4 µM): 0.233
- relative viability (LU99A; first compound 0.04 µM): 0.597
- relative viability (LU99A; first compound 0.1265 µM): 0.524
- relative viability (LU99A; first compound 0.4 µM): 0.63
- relative viability (LU99A; first compound 1.265 µM): 0.528
- relative viability (LU99A; first compound 4 µM): 0.513
- relative viability (LXF-289; first compound 0.04 µM): 0.665
- relative viability (LXF-289; first compound 0.1265 µM): 0.743
- relative viability (LXF-289; first compound 0.4 µM): 0.807
- relative viability (LXF-289; first compound 1.265 µM): 0.717
- relative viability (LXF-289; first compound 4 µM): 0.78
- relative viability (NCI-H1792; first compound 0.04 µM): 0.945
- relative viability (NCI-H1792; first compound 0.1265 µM): 0.972
- relative viability (NCI-H1792; first compound 0.4 µM): 0.921
- relative viability (NCI-H1792; first compound 1.265 µM): 0.912
- relative viability (NCI-H1792; first compound 4 µM): 0.98
- relative viability (NCI-H1944; first compound 0.04 µM): 1.13
- relative viability (NCI-H1944; first compound 0.1265 µM): 0.986
- relative viability (NCI-H1944; first compound 0.4 µM): 1.23
- relative viability (NCI-H1944; first compound 1.265 µM): 1.1
- relative viability (NCI-H1944; first compound 4 µM): 1.05
- relative viability (NCI-H1993; first compound 0.04 µM): 0.948
- relative viability (NCI-H1993; first compound 0.1265 µM): 0.853
- relative viability (NCI-H1993; first compound 0.4 µM): 0.935
- relative viability (NCI-H1993; first compound 1.265 µM): 0.805
- relative viability (NCI-H1993; first compound 4 µM): 0.846
- relative viability (NCI-H2009; first compound 0.04 µM): 0.987
- relative viability (NCI-H2009; first compound 0.1265 µM): 0.478
- relative viability (NCI-H2009; first compound 0.4 µM): 1.12
- relative viability (NCI-H2009; first compound 1.265 µM): 1
- relative viability (NCI-H2009; first compound 4 µM): 0.977
- relative viability (NCI-H2170; first compound 0.04 µM): 1.22
- relative viability (NCI-H2170; first compound 0.1265 µM): 1.21
- relative viability (NCI-H2170; first compound 0.4 µM): 1.18
- relative viability (NCI-H2170; first compound 1.265 µM): 1.06
- relative viability (NCI-H2170; first compound 4 µM): 1.04
- relative viability (NCI-H2228; first compound 0.04 µM): 0.332
- relative viability (NCI-H2228; first compound 0.1265 µM): 0.496
- relative viability (NCI-H2228; first compound 0.4 µM): 0.499
- relative viability (NCI-H2228; first compound 1.265 µM): 0.432
- relative viability (NCI-H2228; first compound 4 µM): 0.496
- relative viability (NCI-H3122; first compound 0.04 µM): 0.25
- relative viability (NCI-H3122; first compound 0.1265 µM): 0.274
- relative viability (NCI-H3122; first compound 0.4 µM): 0.269
- relative viability (NCI-H3122; first compound 1.265 µM): 0.249
- relative viability (NCI-H3122; first compound 4 µM): 0.288
- relative viability (NCI-H596; first compound 0.04 µM): 1.05
- relative viability (NCI-H596; first compound 0.1265 µM): 1.02
- relative viability (NCI-H596; first compound 0.4 µM): 0.884
- relative viability (NCI-H596; first compound 1.265 µM): 0.955
- relative viability (NCI-H596; first compound 4 µM): 1.16
- relative viability (NCI-H727; first compound 0.04 µM): 0.689
- relative viability (NCI-H727; first compound 0.1265 µM): 0.603
- relative viability (NCI-H727; first compound 0.4 µM): 0.992
- relative viability (NCI-H727; first compound 1.265 µM): 0.693
- relative viability (NCI-H727; first compound 4 µM): 0.654
- relative viability (PC-3 [JPC-3]; first compound 0.04 µM): 0.978
- relative viability (PC-3 [JPC-3]; first compound 0.1265 µM): 0.872
- relative viability (PC-3 [JPC-3]; first compound 0.4 µM): 0.967
- relative viability (PC-3 [JPC-3]; first compound 1.265 µM): 0.937
- relative viability (PC-3 [JPC-3]; first compound 4 µM): 0.949
- relative viability (SK-LU-1; first compound 0.04 µM): 0.923
- relative viability (SK-LU-1; first compound 0.1265 µM): 0.898
- relative viability (SK-LU-1; first compound 0.4 µM): 1.02
- relative viability (SK-LU-1; first compound 1.265 µM): 1.06
- relative viability (SK-LU-1; first compound 4 µM): 0.696
- relative viability (SK-MES-1; first compound 0.04 µM): 1.01
- relative viability (SK-MES-1; first compound 0.1265 µM): 0.808
- relative viability (SK-MES-1; first compound 0.4 µM): 1.14
- relative viability (SK-MES-1; first compound 1.265 µM): 0.927
- relative viability (SK-MES-1; first compound 4 µM): 0.925
- relative viability (SW 1573; first compound 0.04 µM): 0.918
- relative viability (SW 1573; first compound 0.1265 µM): 0.721
- relative viability (SW 1573; first compound 0.4 µM): 0.942
- relative viability (SW 1573; first compound 1.265 µM): 0.627
- relative viability (SW 1573; first compound 4 µM): 0.817
